{"source": "patent US12336540B2", "about": "“Method for controlling weeds” (SUMITOMO CHEMICAL COMPANY, LIMITED, priority 2019, dated 2025)", "key": {"[1]": {"system": "Palmer amaranth, waterhemp, kochia, common ragweed or marestail", "settings": "spot foliar treatment of 20% of pot area, 560 g/ha dicamba acid equivalence, 150 L/ha; soybean, corn or cotton seeded immediately after, grown 21 days; compared with plot without crop and plot with uniform blanket treatment at 560 g/ha", "description": "(§1) The evaluation of the herbicidal efficacy is classified into 0 to 100, where the numeral “0” indicates no or little difference in the state of emergence or growth of weeds under test at the time of examination as compared with untreated weeds, and the numeral “100” indicates the complete death of weeds under test or the complete inhibition of emergence or growth of weeds under test.\nA pot is filled with a soil, and then Palmer amaranth, waterhemp, kochia, common ragweed or marestail is seeded at a corner portion of the soil. […] Immediately thereafter, soybean (Genuity Roundup Ready 2 Xtend), corn (Genuity Roundup Ready 2), or cotton (Genuity Roundup Ready 2 Xtend) is seeded in a corner portion different from vegetation patches of weeds in the soil, and grown in the greenhouse for 21 days. This is defined as the invention plot."}, "[2]": {"system": "Palmer amaranth, waterhemp, kochia, common ragweed or marestail", "settings": "weeds and soybean, corn or cotton grown 14 days, spot foliar treatment of 20% of pot area, 560 g/ha dicamba acid equivalence, 150 L/ha, then grown 21 days; compared with plot without crop and plot with uniform blanket treatment at 560 g/ha", "description": "as §1\nA pot is filled with soil, and then Palmer amaranth, waterhemp, kochia, common ragweed, or marestail is seeded at a corner portion of the soil, and soybean (Genuity Roundup Ready 2 Xtend), corn (Genuity Roundup Ready 2), or cotton (Genuity Roundup Ready 2 Xtend) is seeded at another corner portion of the soil. […] Thereafter, the weeds and crops are grown in the greenhouse for 21 days. This is defined as the invention plot."}}, "note": "Where two headings read alike, the source gives them in different places.", "data": [{"smiles": "CN(CCCN)CCCN.COc1c(Cl)ccc(Cl)c1C(=O)O", "note": "[dicamba-biproamine]", "values": [{"measurement": "weed control effect", "setting": "[1]", "result": "excellent weed control effect"}, {"measurement": "weed control effect", "setting": "[2]", "result": "excellent weed control effect"}]}]}
